Experimental data as given in US20160303189A1, “Applications of Recombined Ganoderma Lucidum Immunoregulation Protein in Preparing Drugs for Treating Tissue Fibrosis” (priority 2014, published 2016).

What was measured:
[1] = tested on: myocardial tissue of mice (myocardial fibrosis model); experiment: Establishment of Dox mice myocardial fibrosis models, histological grading;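 further: mice given Dox by injection twice weekly, hearts fixed in paraformaldehyde and scored histologically, with sampling on days 35, 42 and 49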
Method: 100 female Kunming mice weighed 18-22 g were picked and divided into 5 groups: saline group, model group 1 (Dox 1 mg/kg), model group 2 (Dox 2 mg/kg), model group 3 (Dox 3 mg/kg) model group 4 (Dox 4 mg/kg), the number of mice in each group were 15, 15, 25, 30 and 15. Twice a week, every mouse was injected 2000 every time, in which 1 mg/kg Dox, 2 mg/kg Dox, 3 mg/kg Dox or 4 mg/kg Dox was dissolved.
The activities of the mice were closely watched and deaths of the mice were recorded every day at 5:00 pm and 9:00 am. Three days, the 35th the 42nd and the 49th day were chosen to take samples. After deaths, hearts of the mice were taken and rinsed with cold PBS and placed on a clean dry filter paper, then they were put into paraformaldehyde solution to be fixed. The models to assess myocardial fibrosis were established according to histological analysis, the changes in ventricular cavity of the mice, perivascular fibrosis, interstitial fibrosis, and vacuole formation and other changes were taken into consideration to determine whether the model was useable.

[2] = tested on: BLM-induced pulmonary fibrosis; experiment: Effect of rLZ-8 on BLM-induced pulmonary fibrosis of mice, Szapiel grading; type: in vivo; details: Group F: positive drug dexamethasone 4 mg/kg injected, n=12
Text: Experiment groups: there were 7 groups in the experiment and 12 mice in each group. The groups were a saline group (group A), a model group (group B), a low treatment dose group (group C), a medium dose group (group D), a high dose group (group E), a positive control group (group F) and an administration group one week after modeling (group G). The process of modeling was the same as the embodiment 1.
Treating process: groups B, C, D, E, F and G all adopted low BLM dose for modeling. Group A and Group B were injected with saline for serving as contrast groups; Groups C, D and E were injected with rLZ-8 each day for treatment. Mice in these groups were weighed every 3 days and drugs were administrated according to weights of the mice. The dose for Group C was 3.84375 μg/kg, the dose for Group D was 7.6875 μg/kg, the dose for Group E was 19.21875 μg/kg, Group F were injected with positive drug dexamethasone 4 mg/kg, Group G were injected with rLZ-8 for treatment 1 week after modeling and the dose was 7.6875 μg/kg.
On the 14th day and the 21st day, 6 mice were randomly picked and killed in each group. Lungs of the mice were taken out to watch the color of the lungs, if the surface was intact or not, and the changes in the lung surface; parts of the lung tissue were paraffin sectioned and HE stained to be examined histologically; other parts were done with RT-PCR to examine the RNA level. According to histological analysis, RNA level, protein level and the change in the amount of inflammatory cells, the grades of fibrosis were decided.

[3] = tested on: lung tissue of mice (pulmonary fibrosis model); experiment: Model building of pulmonary fibrosis by BLM atomization, Szapiel grading of lung sections; type: in vivo; details: for number of mice with Szapiel grade 0 (no alveolitis or fibrosis) / number of mice with Szapiel grade I (mild alveolitis or fibrosis) / number of mice with Szapiel grade II (medium alveolitis or fibrosis) / number of mice with Szapiel grade III (severe alveolitis or fibrosis): n=12
Method: 1) Modeling experiment grouping: Three groups were classified, a saline group (group A), a low BLM dose group (group B 4 mg/mL), a high BLM dose group (group C 8 mg/Ml), there were 12 mice in each group. The 12 mice in each group were divided into two groups, with 6 mice in each group and the two groups of mice were respectively put into 20×20×20 cm transparent glass containers with corresponding marks, then saline and BLM was sprayed respectively into the containers with medical ultrasonic nebulizers.
2) Model administration process: Each time the spray volume was 1 ml, then a glass cover was closed for 15 minutes and the mice were put back into cages to rest for 5 minutes, and the procedure was repeated 6 times.
The mice were killed respectively after 3 days, 7 days, 14 days and 21 days of feeding, and the lungs of the mice were taken out to see changes in appearance, color and the lung surface; after the lungs were taken out, broncho-alveolar lavage was done first, and then parts of the lung tissue were sliced into paraffin sections and histological examination was done on HE stain; RT-PCR was done on another parts of lung tissue to examine RNA level. Judged from histological analysis, RNA level, protein level and changes in amounts of inflammatory cells, a decision was made to see whether the model of pulmonary fibrosis is usable. The table below is the grading standards made by method of Szapiel to evaluate grading standard of seriousness of the pathological changes in the lung tissue.
There are 4 grades in Szapiel's pathological changes in lung tissue: “0” is grade 1; “I” is grade 2; “II” is grade 3; and “III” is grade 4. The higher the grade, the severer the degree of fibrosis is.

[4] = tested on: mice (renal fibrosis model); experiment: Model making of renal fibrosis of mice with cisplatin (CDDP), survival and weight; type: in vivo
Method: The number of mice in each group was 12, 12 and 12. They were given intraperitoneal injections for 200 μl/per time/per mouse for 5 consecutive days, and the injectionvolumes contained the appropriate doses of cisplatin (CDDP). On the 1st, the 3rd, the 5th, the 7th, the 14th and the 28th days the mice were weighed and the statistics for the survival rates in each group were recorded.

[5] = tested on: Dox-induced myocardial damage; experiment: Treatment effect of rLZ-8 on Dox-induced myocardial damage in mice; type: in vivo; details: Group H: 10 mg/kg fosinopril sodium tablets, intragastric, every two days
Method: Experiment grouping: there were 8 experimental groups, 10 mice/per group, saline group (Group A), model group (Group B), rLZ-8 3 μg/kg (Group C), rLZ-8 6 μg/kg(Group D), rLZ-8 12 μg/kg (Group E), rLZ-8 24 μg/kg (Group F), rLZ-8 48 μg/kg (Group G) and positive control group (Group H).
Treating process: The model making process was the same as embodiment 3. The models for groups B, C, D, E, F, G and H were made with 3 mg/kg Dox, and then as control groups, Groups A and B were given intraperitoneal injection of saline once every day, and Groups C, D, E, G and H were treated with rLZ-8, intravenous injection once every 2 days. The mice were weighed every 3 days and drugs were delivered in accordance with weights. The dose for Group C was 3 μg/kg, Group D was 6 μg/kg, Group E was 12 μg/kg, Group F was 24 μg/kg, Group G was 48 μg/kg, and as the positive control group, every two days the mice in Group H were given 10 mg/kg fosinopril sodium tablets by way of intragastric administration.
Experiment records: The deaths of the mice were recorded at 9:00 and 17:00 every day and activities of the mice were closely watched. […] The myocardial tissues were made into paraffin sections and were treated with HE staining and trichrome staining to do histological examinations.
Experimental results: In order to examine myocardial fibrosis grades of the mice and myocardial fibrosis status, in the seventh week, samples were taken according to the mortality rates. […] Sample taking: the mice were killed with the right amount of anesthetic injections and hearts of the mice were isolated under sterile conditions and rinsed with cold PBS, and then blood was blotted up filter paper. The ventricles were selected and crosscut at a 1/2 section. The myocardial tissue was put into 4% paraformaldehyde solution to be fixed, then it was paraffin sectioned and HE stained. Three slices were cut from each tissue and stained under the same conditions. The myocardial tissue of the mice was Masson stained and was photographed under 20 times 40 times microscopes and statistics were recorded.

[6] = Dox accumulated dose 30, 10 mice
[7] = Dox accumulated dose 36, 10 mice
[8] = Dox accumulated dose 42 (3 mg/kg twice a week for 7 weeks), 9 mice
[9] = High BLM group, 8 mg/mL atomization
[10] = Low BLM group, 4 mg/mL atomization

COc1cccc2c1C(=O)c1c(O)c3c(c(O)c1C2=O)C[C@@](O)(C(=O)CO)C[C@@H]3O[C@H]1C[C@H](N)[C@H](O)[C@H](C)O1 [Doxorubicin]
Interstitial Fibrosis grade 0, number of mice [1, 6]: 9 | Interstitial Fibrosis grade +++, number of mice [1, 6]: 0 | Interstitial Fibrosis grade ++, number of mice [1, 6]: 0 | Interstitial Fibrosis grade +, number of mice [1, 6]: 1 | Number of deaths [1, 6]: 0 | Perivascular Fibrosis grade 0, number of mice [1, 6]: 7 | Perivascular Fibrosis grade +++, number of mice [1, 6]: 0 | Perivascular Fibrosis grade ++, number of mice [1, 6]: 0 | Perivascular Fibrosis grade +, number of mice [1, 6]: 3 | Vacuolization grade 0, number of mice [1, 6]: 10 | Vacuolization grade +++, number of mice [1, 6]: 0 | Vacuolization grade ++, number of mice [1, 6]: 0 | Vacuolization grade +, number of mice [1, 6]: 0 | Interstitial Fibrosis grade 0, number of mice [1, 7]: 10 | Interstitial Fibrosis grade +++, number of mice [1, 7]: 0 | Interstitial Fibrosis grade ++, number of mice [1, 7]: 0 | Interstitial Fibrosis grade +, number of mice [1, 7]: 0 | Number of deaths [1, 7]: 0 | Perivascular Fibrosis grade 0, number of mice [1, 7]: 7 | Perivascular Fibrosis grade +++, number of mice [1, 7]: 0 | Perivascular Fibrosis grade ++, number of mice [1, 7]: 1 | Perivascular Fibrosis grade +, number of mice [1, 7]: 2 | Vacuolization grade 0, number of mice [1, 7]: 9 | Vacuolization grade +++, number of mice [1, 7]: 0 | Vacuolization grade ++, number of mice [1, 7]: 0 | Vacuolization grade +, number of mice [1, 7]: 1 | Interstitial Fibrosis grade 0, number of mice [1, 8]: 5 | Interstitial Fibrosis grade +++, number of mice [1, 8]: 1 | Interstitial Fibrosis grade ++, number of mice [1, 8]: 2 | Interstitial Fibrosis grade +, number of mice [1, 8]: 1 | Number of deaths [1, 8]: 0 | Perivascular Fibrosis grade 0, number of mice [1, 8]: 4 | Perivascular Fibrosis grade +++, number of mice [1, 8]: 1 | Perivascular Fibrosis grade ++, number of mice [1, 8]: 2 | Perivascular Fibrosis grade +, number of mice [1, 8]: 2 | Vacuolization grade 0, number of mice [1, 8]: 4 | Vacuolization grade +++, number of mice [1, 8]: 1 | Vacuolization grade ++, number of mice [1, 8]: 2 | Vacuolization grade +, number of mice [1, 8]: 2

C[C@@H]1C[C@H]2[C@@H]3CCC4=CC(=O)C=C[C@]4(C)[C@@]3(F)[C@@H](O)C[C@]2(C)[C@@]1(O)C(=O)CO [dexamethasone]
number of mice with Szapiel grade 0 (no fibrosis) [2]: 0 | number of mice with Szapiel grade I (mild) [2]: 3 | number of mice with Szapiel grade II (medium) [2]: 5 | number of mice with Szapiel grade III (severe) [2]: 4

bleomycin [BLM]
number of mice with Szapiel grade 0 (no alveolitis or fibrosis) [3, 9]: 0 | number of mice with Szapiel grade I (mild alveolitis or fibrosis) [3, 9]: 1 | number of mice with Szapiel grade II (medium alveolitis or fibrosis) [3, 9]: 2 | number of mice with Szapiel grade III (severe alveolitis or fibrosis) [3, 9]: 9 | number of mice with Szapiel grade 0 (no alveolitis or fibrosis) [3, 10]: 0 | number of mice with Szapiel grade I (mild alveolitis or fibrosis) [3, 10]: 3 | number of mice with Szapiel grade II (medium alveolitis or fibrosis) [3, 10]: 8 | number of mice with Szapiel grade III (severe alveolitis or fibrosis) [3, 10]: 1 | deaths of mice ([3]; high BLM dose group, 8 mg/mL): most of them died of respiratory failures | lung sections of the mice showing severe fibrosis ([3]; high BLM dose group, 8 mg/mL): 75% | lung sections of the mice showing medium fibrosis ([3]; low BLM dose group, 4 mg/mL): 66%

N.N.[Cl][Pt][Cl] [cisplatin]
survival rate ([4]; CDDP 5 mg/kg intraperitoneal, 5 consecutive days, 28th day): 90% | survival rate ([4]; CDDP 7 mg/kg intraperitoneal, 5 consecutive days, 7th day): 60% | mice survived ([4]; CDDP 7 mg/kg intraperitoneal, 5 consecutive days, 28th day): 30% | effect on weight of mice ([4]; cisplatin 5 mg/kg doses): weight loss

CCC(=O)O[C@@H](O[P@](=O)(CCCCc1ccccc1)CC(=O)N1C[C@H](C2CCCCC2)C[C@H]1C(=O)O)C(C)C [fosinopril sodium]
Deaths [5]: 0 | Number of Mice (sampled in week 7 according to mortality, 10 mice per group at start) [5]: 7 | Interstitial Fibrosis grade 0, number of mice ([5]; week 7): 6 | Interstitial Fibrosis grade +++, number of mice ([5]; week 7): 0 | Interstitial Fibrosis grade ++, number of mice ([5]; week 7): 0 | Interstitial Fibrosis grade +, number of mice ([5]; week 7): 1 | Perivascular Fibrosis grade 0, number of mice ([5]; week 7): 5 | Perivascular Fibrosis grade +++, number of mice ([5]; week 7): 0 | Perivascular Fibrosis grade ++, number of mice ([5]; week 7): 1 | Perivascular Fibrosis grade +, number of mice ([5]; week 7): 1 | Vacuolization grade 0, number of mice ([5]; week 7): 6 | Vacuolization grade +++, number of mice ([5]; week 7): 0 | Vacuolization grade ++, number of mice ([5]; week 7): 1 | Vacuolization grade +, number of mice ([5]; week 7): 0
